Measured values reported in patent US9802918B2, “Pyridineamine compounds useful as Pim kinase inhibitors” (Incyte Corporation, priority 2015, dated 2017).
pIC50: −log10 of the molar value.

What was measured:
Assay type in all cases: biochemical
Pim-2 = Pim-2 (Homo sapiens (Human), UniProt Q9P1W9); test: Pim-2 kinase assay; settings: 1 mM ATP; read-out: Pim2 IC50
How it was run: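 Pim-2 (1 nM) with fluorescein-CREBtide ([…]) and 1 mM ATP in Tris pH 7.5, MgCl2, DTT buffer, 2 h at 25 °C. Stopped with EDTA plus Tb-anti-CREB pSer133 antibody; phosphorylation read by TR-FRET after 30 min.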

Pim-3 = Pim-3 (Homo sapiens (Human), UniProt Q86V86); test: Pim-3 kinase assay; settings: 1 mM ATP; read-out: Pim3 IC50
How it was run: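 Human Pim-3 at 1.25 pM phosphorylated […] biotin-BAD peptide with 1 mM ATP for 1 h at 25° C, in pH 7.5 Tris buffer with 5 mM MgCl2 and 5 mM DTT. Reactions were stopped with EDTA buffer containing phospho-Bad (Ser112) antibody and AlphaScreen donor/acceptor beads. Plates were read after 1 h dark incubation at room temperature.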

Pim-1 = Pim-1 (Homo sapiens (Human), UniProt P11309); test: Pim-1 kinase assay; settings: 1 mM ATP; read-out: Pim1 IC50
Pim-1, sequence (P11309 whole entry): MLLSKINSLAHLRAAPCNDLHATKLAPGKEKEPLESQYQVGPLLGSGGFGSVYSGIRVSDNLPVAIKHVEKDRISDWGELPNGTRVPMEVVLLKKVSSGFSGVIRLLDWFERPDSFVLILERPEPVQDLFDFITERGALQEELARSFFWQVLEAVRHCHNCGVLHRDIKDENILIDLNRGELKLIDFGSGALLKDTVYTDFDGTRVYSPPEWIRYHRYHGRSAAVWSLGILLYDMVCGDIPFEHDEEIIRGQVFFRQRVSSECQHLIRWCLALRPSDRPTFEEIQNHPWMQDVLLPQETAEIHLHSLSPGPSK
Experimental: Supplementation of the STOP buffer with beads and stopping the reactions were done under reduced light. Prior to the stopping reactions STOP buffer with beads was preincubated for 1 h in the dark at room temperature. After stopping the reactions, plates were incubated for 1 h in the dark at room temperature before reading on a PHERAstar FS plate reader (BMG Labtech) under reduced light.

Pim-2, sequence (Q9P1W9 whole entry): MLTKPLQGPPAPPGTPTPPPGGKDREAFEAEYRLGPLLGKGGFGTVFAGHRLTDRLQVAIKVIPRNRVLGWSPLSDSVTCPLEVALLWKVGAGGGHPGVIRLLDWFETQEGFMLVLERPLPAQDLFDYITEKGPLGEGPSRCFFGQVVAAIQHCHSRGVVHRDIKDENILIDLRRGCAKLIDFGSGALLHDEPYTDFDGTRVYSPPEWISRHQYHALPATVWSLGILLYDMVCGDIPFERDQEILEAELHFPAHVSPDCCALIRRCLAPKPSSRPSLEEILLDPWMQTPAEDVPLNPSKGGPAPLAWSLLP

| SMILES | pIC50 (Pim-2) | pIC50 (Pim-3) | pIC50 (Pim-1) |
| --- | --- | --- | --- |
| C[C@@H]1C[C@H](N)CN(c2ccncc2NCc2ccc(F)c(-c3ccc(C#N)cc3F)n2)C1 [Example 84, 4-{6-[({4-[(3S,5R)-3-Amino-5-methylpiperidin-1-yl]pyridin-3-yl}amino)methyl]-3-fluoropyridin-2-yl}-3-fluorobenzonitrile] | 6.00 to 7.00 | ≥ 8.00 | > 8.00 |
| C[C@@H]1C[C@H](N)CN(c2ccncc2NCc2ccc(F)c(-c3ccc4sccc4c3)n2)C1 [Example 85, 4-[(3S,5R)-3-Amino-5-methylpiperidin-1-yl]-N-{[6-(1-benzothien-5-yl)-5-fluoropyridin-2-yl]methyl}pyridin-3-amine] | 6.00 to 7.00 | ≥ 8.00 | > 8.00 |
| C[C@@H]1C[C@H](N)CN(c2ccncc2NCc2ccc(F)c(-c3ccc4c(c3)NC(=O)C4)n2)C1 [Example 86, 6-{6-[({4-[(3S,5R)-3-Amino-5-methylpiperidin-1-yl]pyridin-3-yl}amino)methyl]-3-fluoropyridin-2-yl}-1,3-dihydro-2H-indol-2-one] | 6.00 to 7.00 | ≥ 8.00 | > 8.00 |
| C[C@H]1CN(c2c(NCc3ccc(F)c(-c4c(F)cccc4F)n3)cnc3c2CCO3)C[C@@H](N)[C@@H]1O [Example 88, (3R,4R,5S)-3-Amino-1-[5-({[6-(2,6-difluorophenyl)-5-fluoropyridin-2-yl]methyl}amino)-2,3-dihydrofuro[2,3-b]pyridin-4-yl]-5-methylpiperidin-4-ol] | 5.00 to 6.00 | ≥ 8.00 | > 8.00 |
| C[C@@H]1C[C@H](N)CN(c2c(NCc3ccc(F)c(-c4c(F)cccc4F)n3)cnc3c2CCC3)C1 [Example 89, 4-[(3S,5R)-3-Amino-5-methylpiperidin-1-yl]-N-{[6-(2,6-difluorophenyl)-5-fluoropyridin-2-yl]methyl}-6,7-dihydro-5H-cyclopenta[b]pyridin-3-amine] | 6.00 to 7.00 | ≥ 8.00 | > 8.00 |
| N[C@@H]1CN(c2ccncc2NCc2ccc(F)c(-c3c(F)cccc3F)n2)CC[C@H]1F [Example 90, 4-[(3R,4R)-3-Amino-4-fluoropiperidin-1-yl]-N-{[6-(2,6-difluorophenyl)-5-fluoropyridin-2-yl]methyl}pyridin-3-amine] | 5.00 to 6.00 | ≥ 8.00 | > 8.00 |
| C[C@@H]1C[C@H](N)CN(c2ccncc2NCc2ccc3ccc(-c4ccc5c(c4)OCC5)cc3n2)C1 [Example 91, 4-[(3S,5R)-3-Amino-5-methylpiperidin-1-yl]-N-{[7-(2,3-dihydro-1-benzofuran-6-yl)quinolin-2-yl]methyl}pyridin-3-amine] | 6.00 to 7.00 | ≥ 8.00 | > 8.00 |
| C[C@@H]1C[C@H](N)CN(c2ccncc2NCc2ccc3ccc(-c4ccn5ccnc5c4)cc3n2)C1 [Example 92, 4-[(3S,5R)-3-Amino-5-methylpiperidin-1-yl]-N-[(7-imidazo[1,2-a]pyridin-7-ylquinolin-2-yl)methyl]pyridin-3-amine] | 6.00 to 7.00 | ≥ 8.00 | > 8.00 |
| C[C@H]1CN(c2ccncc2NCc2ccc3ccc(-c4ccn5ccnc5c4)cc3n2)C[C@@H](N)[C@@H]1O [Example 93, (3R,4R,5S)-3-Amino-1-(3-{[(7-imidazo[1,2-a]pyridin-7-ylquinolin-2-yl)methyl]amino}pyridin-4-yl)-5-methylpiperidin-4-ol] | 6.00 to 7.00 | ≥ 8.00 | > 8.00 |
| C[C@H]1CN(c2ccncc2NCc2ccc3occ(-c4c(F)cc(CO)cc4F)c3n2)C[C@@H](N)[C@@H]1O [Example 96, (3R,4R,5S)-3-amino-1-(3-(((3-(2,6-difluoro-4-(hydroxymethyl)phenyl)furo[3,2-b]pyridin-5-yl)methyl)amino)pyridin-4-yl)-5-methylpiperidin-4-ol] | 6.00 to 7.00 | ≥ 8.00 | > 8.00 |
| C[C@H]1CN(c2ccncc2NCc2ccc3occ(-c4ccc(CO)cc4F)c3n2)C[C@@H](N)[C@@H]1O [Example 97, (3R,4R,5S)-3-amino-1-(3-(((3-(2-fluoro-4-(hydroxymethyl)phenyl)furo[3,2-b]pyridin-5-yl)methyl)amino)pyridin-4-yl)-5-methylpiperidin-4-ol] | 6.00 to 7.00 | ≥ 8.00 | 7.30 to 8.00 |
| CC(C)c1coc2ccc(CNc3cnccc3N3C[C@H](C)C[C@H](N)C3)nc12 [Example 98, 4-[(3S,5R)-3-Amino-5-methylpiperidin-1-yl]-N-[(3-isopropylfuro[3,2-b]pyridin-5-yl)methyl]pyridin-3-amine] | 6.00 to 7.00 | ≥ 8.00 | > 8.00 |
| C[C@@H]1C[C@H](N)CN(c2ccncc2NCc2ccc3occ(-c4c(F)cc(CO)cc4F)c3n2)C1 [Example 99, (4-(5-((4-((3S,5R)-3-amino-5-methylpiperidin-1-yl)pyridin-3-ylamino)methyl)furo[3,2-b]pyridin-3-yl)-3,5-difluorophenyl)methanol] | ≥ 7.00 | ≥ 8.00 | > 8.00 |
| C[C@@H]1C[C@H](N)CN(c2ccncc2NCc2ccc3occ(-c4ccc(CO)cc4F)c3n2)C1 [Example 100, (4-(5-((4-((3S,5R)-3-amino-5-methylpiperidin-1-yl)pyridin-3-ylamino)methyl)furo[3,2-b]pyridin-3-yl)-3-fluorophenyl)methanol] | ≥ 7.00 | ≥ 8.00 | > 8.00 |
| C[C@@H]1C[C@H](N)CN(c2ccncc2NCc2ccc3occ(C4CC4)c3n2)C1 [Example 102, 4-[(3S,5R)-3-Amino-5-methylpiperidin-1-yl]-N-[(3-cyclopropylfuro[3,2-b]pyridin-5-yl)methyl]pyridin-3-amine] | 6.00 to 7.00 | ≥ 8.00 | > 8.00 |
| C[C@@H]1C[C@H](N)CN(c2ccncc2NCc2ccc(F)c(-c3c(F)cc(OCC(C)(C)O)cc3F)n2)C1 [Example 103, 1-(4-{6-[({4-[(3S,5R)-3-Amino-5-methylpiperidin-1-yl]pyridin-3-yl}amino)methyl]-3-fluoropyridin-2-yl}-3,5-difluorophenoxy)-2-methylpropan-2-ol] | ≥ 7.00 | ≥ 8.00 | > 8.00 |
| C[C@H]1CN(c2ccncc2NCc2ccc(F)c(-c3c(F)cc(OCC(C)(C)O)cc3F)n2)C[C@@H](N)[C@@H]1O [Example 104, (3R,4R,5S)-3-Amino-1-{3-[({6-[2,6-difluoro-4-(2-hydroxy-2-methylpropoxy)phenyl]-5-fluoropyridin-2-yl}methyl)amino]pyridin-4-yl}-5-methylpiperidin-4-ol] | 6.00 to 7.00 | ≥ 8.00 | > 8.00 |
| C[C@@H]1C[C@H](N)CN(c2ccncc2NCc2ccc(F)c(-c3c(F)cc(C(C)(C)O)cc3F)n2)C1 [Example 105, 2-(4-{6-[({4-[(3S,5R)-3-Amino-5-methylpiperidin-1-yl]pyridin-3-yl}amino)methyl]-3-fluoropyridin-2-yl}-3,5-difluorophenyl)propan-2-ol] | ≥ 7.00 | ≥ 8.00 | > 8.00 |
| C[C@H]1CN(c2ccncc2NCc2ccc(F)c(-c3c(F)cc(C(C)(C)O)cc3F)n2)C[C@@H](N)[C@@H]1O [Example 106, (3R,4R,5S)-3-Amino-1-{3-[({6-[2,6-difluoro-4-(1-hydroxy-1-methylethyl)phenyl]-5-fluoropyridin-2-yl}methyl)amino]pyridin-4-yl}-5-methylpiperidin-4-ol] | ≥ 7.00 | ≥ 8.00 | > 8.00 |
| C[C@H]1CN(c2ccncc2NCc2ccc3ccc(-c4ccn(C)c(=O)c4F)cc3n2)C[C@@H](N)[C@@H]1O [Example 107, 4-{2-[({4-[(3R,4R,5S)-3-Amino-4-hydroxy-5-methylpiperidin-1-yl]pyridin-3-yl}amino)methyl]quinolin-7-yl}-3-fluoro-1-methylpyridin-2(1H)-one] | ≥ 7.00 | ≥ 8.00 | > 8.00 |
| C[C@@H]1C[C@H](N)CN(c2ccncc2NCc2nc(-c3c(F)cccc3F)c(F)cc2N)C1 [Example 108, 2-[({4-[(3S,5R)-3-Amino-5-methylpiperidin-1-yl]pyridin-3-yl}amino)methyl]-6-(2,6-difluorophenyl)-5-fluoropyridin-3-amine] | ≥ 7.00 | ≥ 8.00 | > 8.00 |
| Nc1cc(F)c(-c2c(F)cccc2F)nc1CNc1cnccc1N1C[C@@H](N)C[C@@H](C(F)(F)F)C1 [Example 109, 2-[({4-[(3S,5R)-3-Amino-5-(trifluoromethyl)piperidin-1-yl]pyridin-3-yl}amino)methyl]-6-(2,6-difluorophenyl)-5-fluoropyridin-3-amine] | ≥ 7.00 | ≥ 8.00 | > 8.00 |
| C[C@@H]1C[C@H](N)CN(c2ccnc(F)c2NCc2ccc(F)c(-c3c(F)cccc3F)n2)C1 [Example 110, 4-[(3S,5R)-3-Amino-5-methylpiperidin-1-yl]-N-{[6-(2,6-difluorophenyl)-5-fluoropyridin-2-yl]methyl}-2-fluoropyridin-3-amine] | ≥ 7.00 | ≥ 8.00 | > 8.00 |
| CC(Nc1cnccc1N1C[C@H](C)C[C@H](N)C1)c1ccc(F)c(-c2c(F)cccc2F)n1 (stereo partly drawn) [Example 111, 4-[(3S,5R)-3-Amino-5-methylpiperidin-1-yl]-N-{1-[6-(2,6-difluorophenyl)-5-fluoropyridin-2-yl]ethyl}pyridin-3-amine] | ≥ 7.00 | ≥ 8.00 | > 8.00 |
